According to US6235731A, “Fused imidazopyridine derivatives as antihyperlipidemic agents” (Takeda Chemical Industries, Ltd., priority 1996, dated 2001):
Counter-ions that a name gives are not always drawn. Like-named read-outs stand apart in the source and are kept apart here.

Legend:
HepG2 cells = assay: Increase in LDL-binding to HepG2 cells; assay type: cell-based; conditions: 10 μM test compound, 20 hours, specific human [125I]LDL binding, normalized by protein, read-out: LDL binding (% of control)
Protocol: Increase in LDL-binding to HepG2 cells LDL-binding was measured according to the method of J. L. Goldstein. HepG2 cells were purchased from ATCC (American type culture collection) and seeded in 6-well plate with collagen coating (Sumitomo Bakelite), and cultured in Eagle's minimum essential medium (MEM) containing 10%-fetal bovine serum at 37° C. for 4 days. […] After washing with phosphate buffered saline cells were incubated with MEM containing 25 mM-HEPES and 1%-bovine serum albumin (fatty acid free) in the presence of human [^125 I]LDL (4 μg/ml) at 6° C. for 2 hours. After washing cells bound [^125 I]LDL was dissociated with dextran sulfate and the radioactivity was measured (total binding). [^125 I]LDL binding to cells was also measured in the presence of LDL (300 μg/ml) as a non-specific binding (NSB). Specific [^125 I]LDL-binding was calculated by subtracting NSB from total binding and was normalized by protein content measured by the method of lowry. Data was expressed as percentage of the control.

Golden Syrian hamsters = assay: Cholesterol lowering activity in Golden hamster; assay type: in vivo, Golden Syrian hamster; conditions: Mesocricetus auratus, po, 96 h, 20 mg/kg/d orally, once daily for 4 days
Protocol: Cholesterol lowering activity in Golden hamster Male Golden Syrian hamsters (110-130 g) were maintained freely on water and a laboratory diet (CE-2, Clea Japan Inc., Tokyo). […] Blood was taken from orbital sinus and plasma total cholesterol and triglyceride were measured an automatic analyzer (Hitachi 7070, Hitachi Ltd., Tokyo) using commercial kits (Wako Pure Chemical Industries, Osaka), and plasma HDL-cholesterol using a commercial kit (Kyowa Medex Co., Ltd., Tokyo) before and after the treatment of compound. Non-HDL cholesterol was calculated by subtracting HDL-cholesterol from total cholesterol. |Non-HDL-C (non-HDL-cholesterol): [total cholesterol]-[HDL-cholesterol] |TG: triglyceride

[1] = plasma triglyceride, read-out: TG (% of control)
[2] = plasma, [total cholesterol]-[HDL-cholesterol], read-out: Non-HDL-C (% of control)

Row | Compound | activity at 10 µM (HepG2 cells) [%] | response vs control in vivo at 20 mg/kg (Golden Syrian hamsters; [1]) [%] | response vs control in vivo at 20 mg/kg (Golden Syrian hamsters; [2]) [%]
1 | O=C(NCC1CCN(C[C@@H]2COc3ccccc3O2)CC1)C1=Cc2cnc3cccc(n23)S1 [Example 1, (R)-N-[1-(1,4-benzodioxan-2-ylmethyl)piperidin-4-ylmethyl]-5-thia-1,8b-diazaacenaphthylene-4-carboxamide dihydrochloride] | 203 | 78.4 | 68.6
2 | O=C(NCC1CCN(C[C@H]2COc3ccccc3O2)CC1)C1=Cc2cnc3cccc(n23)S1 [Example 2, (S)-N-[1-(1,4-benzodioxan-2-ylmethyl)piperidin-4-ylmethyl]-5-thia-1,8b-diazaacenaphthylene-4-carboxamide] | 172 | 102 | 65.1
3 | O=C(NCC1CCN(CC2COc3ccccc3O2)CC1)C1=Cc2cnc3cccc(n23)S1 (centres unmarked) [Example 3, N-[1-(1,4-benzodioxan-2-ylmethyl)piperidin-4-ylmethyl]-5-thia-1,8b-diazaacenaphthylene-4-carboxamide dihydrochloride] | 194 | 91.3 | 69.5
4 | O=C(C=CC1=Cc2cnc3cccc(n23)S1)NCC1CCN(CCCc2ccccc2)CC1 [Example 9, N-[1-(3-phenylpropan-1-yl)piperidin-4-ylmethyl]-3-(5-thia-1,8b-diazaacenaphthylen-4-yl)acrylamide dihydrochloride] | 247 | 67 | 62.3
5 | O=C(C=CC1=Cc2cnc3cccc(n23)S1)NC1CCN(CCCc2ccccc2)CC1 [Example 10, N-[1-(3-phenylpropan-1-yl)piperidin-4-yl]-3-(5-thia-1,8b-diazaacenaphthylen-4-yl)acrylamide dihydrochloride] | 169 | 70.8 | 61
6 | O=C(NCCCCN1CCC(c2ccccc2)CC1)C1=Cc2cnc3cccc(n23)S1 [Example 26, N-[4-(4-phenylpiperidin-1-yl)butan-1-yl]-5-thia-1,8b-diazaacenaphthylene-4-carboxamide Dihydrochloride] | 189 | 82 | 66.4
7 | O=C(NCCCN1CCC(c2ccccc2)CC1)C1=Cc2cnc3cccc(n23)S1 [Example 27, N-[3-(4-phenylpiperidin-1-yl)propan-1-yl]-5-thia-1,8b-diazaacenaphthylene-4-carboxamide Dihydrochloride] | 168 | 83.9 | 73.9
8 | O=C(NCCCCN1CCC(Cc2ccccc2)CC1)C1=Cc2cnc3cccc(n23)S1 [Example 28, N-[4-(4-benzylpiperidin-1-yl)butan-1-yl]-5-thia-1,8b-diazaacenaphthylene-4-carboxamide Dihydrochloride] | 194 | 61.3 | 62.9
9 | O=C(NCCCN1CCC(Cc2ccccc2)CC1)C1=Cc2cnc3cccc(n23)S1 [Example 29, N-[3-(4-benzylpiperidin-1-yl)propan-1-yl]-5-thia-1,8b-diazaacenaphthylene-4-carboxamide Dihydrochloride] | – | 73.9 | 68.1
10 | O=C(NCCCCN1CCN(Cc2ccccc2)CC1)C1=Cc2cnc3cccc(n23)S1 [Example 32, N-[4-(4-benzyl-1-piperazinyl)butan-1-yl]-5-thia-1,8b-diazaacenaphthylene-4-carboxamide Trihydrochloride] | – | 76.5 | 76.6
11 | O=C(NCCCN1CCN(Cc2ccccc2)CC1)C1=Cc2cnc3cccc(n23)S1 [Example 33, N-[3-(4-benzyl-1-piperazinyl)propan-1-yl]-5-thia-1,8b-diazaacenaphthylene-4-carboxamide Trihydrochloride] | – | 85.6 | 77.1
12 | O=C(NCCCCN1CCc2ccccc2C1)C1=Cc2cnc3cccc(n23)S1 [Example 34, N-[4-(1,2,3,4-tetrahydroisoquinolin-2-yl)butan-1-yl]-5-thia-1,8b-diazaacenaphthylene-4-carboxamide Dihydrochloride] | – | 74.7 | 72.2
13 | O=C(NC1CCN(CCCc2ccccc2)CC1)C1=Cc2cnc3cccc(n23)S1 [Example 36, N-[1-(3-phenylpropan-1-yl)piperidin-4-yl]-5-thia-1,8b-diazaacenaphthylene-4-carboxamide Dihydrochloride] | 218 | 74.7 | 61.9
14 | O=C(NC1CCN(CCCc2ccccc2Cl)CC1)C1=Cc2cnc3cccc(n23)S1 [Example 39, N-[1-[3-(2-chlorophenyl)propan-1-yl]piperidin-4-yl]-5-thia-1,8b-diazaacenaphthylene-4-carboxamide dihydrochloride] | – | 62.6 | 62.7
15 | O=C(NCCCC1CCN(CCCc2ccccc2)CC1)C1=Cc2cnc3cccc(n23)S1 [Example 46, N-[3-(1-(3-phenylpropan-1-yl)piperidin-4-yl)propan-1-yl]-5-thia-1,8b-diazaacenaphthylene-4-carboxamide Dihydrochloride] | 166 | 72.4 | 69.6
16 | O=C(C1=Cc2cnc3cccc(n23)S1)N(Cc1ccccc1)CC1CCN(CCCc2ccccc2)CC1 [Example 52, N-benzyl-N-[1-(3-phenylpropan-1-yl)piperidin-4-ylmethyl]-5-thia-1,8b-diazaacenaphthylene Dihydrochloride] | 183 | – | –
17 | O=C(NCCN1CCN(CCCc2ccccc2)CC1)C1=Cc2cnc3cccc(n23)S1 [Example 58, N-[2-(4-(3-phenylpropan-1-yl)piperazin-1-yl)ethan-1-yl]-5-thia-1,8b-diazaacenaphthylene-4-carboxamide Trihydrochloride] | – | 71.2 | 74
18 | O=C(NCC1CCN(CCCc2ccccc2F)CC1)C1=Cc2cnc3cccc(n23)S1 [Example 67, N-[1-(3-(2-fluorophenyl)propan-1-yl)piperidin-4-ylmethyl]-5-thia-1,8b-diazaacenaphthylene-4-carboxamide Dihydrochloride] | 162 | 67.9 | 62
19 | O=C(NCC1CCN(CCc2ccccc2F)CC1)C1=Cc2cnc3cccc(n23)S1 [Example 68, N-[1-(2-fluorophenethyl)piperidin-4-ylmethyl]-5-thia-1,8b-diazaacenaphthylene-4-carboxamide Dihydrochloride] | – | 74.3 | 58.5
20 | O=C(NCC1CCN(CCc2ccc(F)cc2)CC1)C1=Cc2cnc3cccc(n23)S1 [Example 70, N-[1-(4-fluorophenethyl)piperidin-4-ylmethyl]-5-thia-1,8b-diazaacenaphthylene-4-carboxamide Dihydrochloride] | – | 71.2 | 47.9
21 | O=C(NCC1CCN(CCCc2cccc(F)c2)CC1)C1=Cc2cnc3cccc(n23)S1 [Example 74, N-[1-(3-(3-fluorophenyl)propan-1-yl)piperidin-4-ylmethyl]-5-thia-1,8b-diazaacenaphthylene-4-carboxamide Dihydrochloride] | – | 67.9 | 73.5
22 | O=C(NCC1CCN(CCCc2ccccc2Cl)CC1)C1=Cc2cnc3cccc(n23)S1 [Example 77, N-[1-(3-(2-chlorophenyl)propan-1-yl)piperidin-4-ylmethyl]-5-thia-1,8b-diazaacenaphthylene-4-carboxamide Dihydrochloride] | 168 | – | –
23 | COc1ccccc1CCCN1CCC(CNC(=O)C2=Cc3cnc4cccc(n34)S2)CC1 [Example 80, N-[1-(3-(2-methoxyphenyl)propan-1-yl)piperidin-4-ylmethyl]-5-thia-1,8b-diazaacenaphthylene-4-carboxamide Dihydrochloride] | 248 | – | –
24 | O=C(NCC1CCN(CCCOc2ccc(F)cc2)CC1)C1=Cc2cnc3cccc(n23)S1 [Example 113, N-[1-(3-(4-fluorophenoxy)propan-1-yl)piperidin-4-ylmethyl]-5-thia-1,8b-diazaacenaphthylene-4-carboxamide Dihydrochloride] | 140 | – | –
25 | O=C(NCC1CCN(CCCOc2ccc(F)cc2F)CC1)C1=Cc2cnc3cccc(n23)S1 [Example 117, N-[1-(3-(2,4-difluorophenoxy)propan-1-yl)piperidin-4-ylmethyl]-5-thia-1,8b-diazaacenaphthylene-4-carboxamide Dihydrochloride] | 137 | – | –
